Entries after “also recorded” stand apart in the source; their conditions may differ. Read-outs that look alike come from different tables or passages of the source.
Legend:
vascular Kv7 channels = assay: Electrophysiology of Kv7 currents in vascular smooth muscle cells; type: cell-based, rat and human; conditions: for effect on vascular Kv7 channels: vascular smooth muscle cells
Description: The scope of the present invention further encompasses the tools used to measure vascular Kv7 channel activities and/or functional contributions of these channels in vascular smooth muscle cells. […] For example, flupirtine is a known Kv7 channel activator used to treat pain; plasma concentrations achieved clinically can be as high as about 12 μM with a 100 mg dose (Abrams et al., “Pharmacokinetics of flupirtine in elderly volunteers and in patients with moderate renal impairment,” Postgraduate Medical Journal, 64: 361-363 (1988)) and doses up to about 600 mg are routinely given to treat chronic pain. […] Further indications to support such predictions may be obtained by measuring the effects of drugs on constriction/dilation of pressurized arteries.

KCNQ channels = assay: Patch-clamp of KCNQ currents in rat airway myocytes (ASMCs); type: cell-based
Description: An investigation relating to these aspects of the invention was conducted to determine whether KCNQ (Kv7) K^+ channels are expressed and functional in rat airway myocytes. To accomplish this, a combination of real time polymerase chain reaction (RT-PCR) and patch-clamp electrophysiology was used. Isolation of rat ASMCs from bronchial strips for the patch-clamp electrophysiology as well as RNA isolation from rat trachea for the RT-PCR were performed using methods as described in Brueggemann et al., “KCNQ (Kv7) potassium channel activators as bronchodilators: combination with a β2-adrenergic agonist enhances relaxation of rat airways,” Am J Physiol Lung Cell Mol Physiol (in press), incorporated herein by reference.
Therefore K^+ currents in enzymatically dispersed rat airway myocytes were measured using patch-clamp electrophysiology.
After 10 minutes of MeCh treatment, the time course recording was interrupted for 10 minutes for measurement of steady-state I-V relationship (time break indicated by vertical gray lines). Then, after an additional one minute recording at −20 mV holding voltage, retigabine (10 μM) was applied in the presence of MeCh for 5 minutes. The time course recording was interrupted again for ten minutes for measurement of steady-state I-V relationship and, after an additional one minute time course recording, XE991 (1 μM) was applied in the presence of MeCh and retigabine for ten minutes.
The investigation examined whether the bronchorelaxant effects of long-acting β2-adrenergic receptor agonist, formoterol, were mediated via activation of KCNQ channels in rat airway myocytes. […] The time course recording was interrupted for 10 minutes for measurement of steady-state I-V relationship (time break indicated by vertical gray lines). After an additional 5 minutes recording, retigabine (10 μM) was applied in the continued presence of formoterol. The time course recording was interrupted again for 10 minutes for recording of steady-state I-V curves, and, after an additional 5 minutes recording, XE991 (1 μM) was applied in the presence of retigabine.

[1] = tested on: rat bronchioles in precision-cut lung slices (PCLS); assay: Airway constriction/relaxation in rat precision-cut lung slices (PCLS); conditions: for bronchorelaxant action when XE991 is included: with XE991 10 μM
Description: Another investigation was performed to investigate the ability of KCNQ channel activators to attenuate MeCh-induced concentration-dependent constriction of rat bronchioles in precision-cut lung slices (PCLS). The PCLS were prepared using methods described by Brueggemann et al., “KCNQ (Kv7) potassium channel activators as bronchodilators: combination with a β2-adrenergic agonist enhances relaxation of rat airways,” Am J Physiol Lung Cell Mol Physiol (in press). PCLS were superfused with increasing concentrations of MeCh in the range from 100 nM to 1 μM. Each concentration was applied for thirty minutes, followed by a forty-five minute washout prior to application of the next MeCh concentration (FIG. 12A,B). […] Percent of airway constriction, relative to the cross-sectional area measured before the initial MeCh treatment, was calculated for each MeCh concentration and plotted against concentration of MeCh.
Bronchorelaxant effects were further assessed by measuring the extent of bronchoconstriction when MeCh was applied in the absence or presence of different structurally unrelated KCNQ channel activators (or vehicle).
FIG. 13C is a representative time course of changes in lumenal area of a small airway in rat PCLS on application of 230 nM MeCh (thirty minutes) followed by application of 230 nM MeCh in the presence of 10 nM formoterol (FF, thirty minutes). Dashed vertical lines marked “max” and “final” indicate 1 minute time intervals where the maximum or final relaxation was measured relative to the MeCh-induced constriction (measured during the last minute of MeCh alone). FIG. 13D is a representative time course of changes in lumenal area of a small airway treated as in panel C, except that 10 μM retigabine was included with the formoterol treatment (“FF+R,” thirty minutes).
The amount of desensitization for each concentration of formoterol in the absence and presence of 10 μM retigabine was estimated by subtraction of final relaxation (after thirty-minute treatment) from maximal relaxation.
To further investigate the desensitization to formoterol in rat PCLS, formoterol (10 nM) was applied twice, at a 90 minute interval, to airways constricted repetitively with 230 nM MeCh.

[2] = compared with celecoxib; cited from earlier work
[3] = biological target: vascular L-type Ca^2+ channels (Homo sapiens, UniProt Q13936); conditions: vascular smooth muscle cells
vascular L-type Ca^2+ channels, sequence (Q13936 whole entry): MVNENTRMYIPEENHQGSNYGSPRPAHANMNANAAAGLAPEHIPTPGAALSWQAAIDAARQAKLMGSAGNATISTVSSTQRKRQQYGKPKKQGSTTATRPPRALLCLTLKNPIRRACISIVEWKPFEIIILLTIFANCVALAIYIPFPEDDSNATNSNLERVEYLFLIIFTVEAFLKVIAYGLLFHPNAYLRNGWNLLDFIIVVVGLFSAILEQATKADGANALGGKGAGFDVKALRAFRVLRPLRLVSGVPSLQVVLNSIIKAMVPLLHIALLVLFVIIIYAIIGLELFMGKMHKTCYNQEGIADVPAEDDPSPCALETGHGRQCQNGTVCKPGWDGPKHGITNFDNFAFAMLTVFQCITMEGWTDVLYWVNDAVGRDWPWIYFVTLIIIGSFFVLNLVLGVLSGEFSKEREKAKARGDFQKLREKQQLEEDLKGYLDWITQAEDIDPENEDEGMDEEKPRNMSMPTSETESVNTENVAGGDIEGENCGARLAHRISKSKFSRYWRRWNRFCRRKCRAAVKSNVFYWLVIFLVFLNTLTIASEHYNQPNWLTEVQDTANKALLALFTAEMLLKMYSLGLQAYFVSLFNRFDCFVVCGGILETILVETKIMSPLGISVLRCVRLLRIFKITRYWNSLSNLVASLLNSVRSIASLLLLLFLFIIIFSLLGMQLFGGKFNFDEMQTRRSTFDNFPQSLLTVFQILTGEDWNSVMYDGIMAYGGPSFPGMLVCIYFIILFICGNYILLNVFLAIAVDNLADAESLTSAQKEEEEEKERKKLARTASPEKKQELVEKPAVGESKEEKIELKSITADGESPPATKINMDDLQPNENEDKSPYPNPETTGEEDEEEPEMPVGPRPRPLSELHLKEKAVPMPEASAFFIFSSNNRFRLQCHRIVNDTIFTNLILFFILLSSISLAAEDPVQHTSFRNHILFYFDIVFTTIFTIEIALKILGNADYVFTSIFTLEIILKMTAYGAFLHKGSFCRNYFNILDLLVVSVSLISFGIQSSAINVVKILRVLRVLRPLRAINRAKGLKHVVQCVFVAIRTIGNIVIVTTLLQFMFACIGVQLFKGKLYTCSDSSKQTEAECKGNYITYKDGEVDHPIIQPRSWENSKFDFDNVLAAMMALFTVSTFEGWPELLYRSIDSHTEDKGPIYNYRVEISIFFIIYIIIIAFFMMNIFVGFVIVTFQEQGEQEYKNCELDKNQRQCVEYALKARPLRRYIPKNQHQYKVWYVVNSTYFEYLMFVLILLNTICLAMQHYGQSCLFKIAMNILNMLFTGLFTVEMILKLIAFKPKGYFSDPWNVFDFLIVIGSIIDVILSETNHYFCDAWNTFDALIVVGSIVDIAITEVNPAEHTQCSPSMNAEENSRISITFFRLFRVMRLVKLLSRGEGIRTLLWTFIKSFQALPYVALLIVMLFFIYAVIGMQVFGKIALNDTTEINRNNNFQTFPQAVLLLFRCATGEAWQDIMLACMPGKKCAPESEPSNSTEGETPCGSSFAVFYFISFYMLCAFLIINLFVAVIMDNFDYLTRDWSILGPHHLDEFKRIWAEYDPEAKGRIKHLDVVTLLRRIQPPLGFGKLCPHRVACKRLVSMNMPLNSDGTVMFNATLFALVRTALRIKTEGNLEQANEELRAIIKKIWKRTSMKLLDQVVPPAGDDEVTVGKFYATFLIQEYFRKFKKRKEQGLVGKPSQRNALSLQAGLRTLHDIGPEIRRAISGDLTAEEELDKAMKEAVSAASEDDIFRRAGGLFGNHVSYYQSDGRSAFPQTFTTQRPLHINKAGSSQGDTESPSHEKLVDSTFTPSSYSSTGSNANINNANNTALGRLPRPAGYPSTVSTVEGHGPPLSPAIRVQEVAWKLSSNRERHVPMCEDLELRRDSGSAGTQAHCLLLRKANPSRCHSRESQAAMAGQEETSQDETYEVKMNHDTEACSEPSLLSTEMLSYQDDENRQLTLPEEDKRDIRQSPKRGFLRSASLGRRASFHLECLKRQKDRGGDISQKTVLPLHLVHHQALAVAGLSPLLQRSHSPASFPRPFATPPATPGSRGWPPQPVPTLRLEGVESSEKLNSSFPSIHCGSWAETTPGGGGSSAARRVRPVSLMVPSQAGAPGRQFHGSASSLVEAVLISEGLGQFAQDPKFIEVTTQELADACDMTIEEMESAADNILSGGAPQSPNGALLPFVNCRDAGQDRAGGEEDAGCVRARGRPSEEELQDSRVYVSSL
vascular L-type Ca^2+ channels, sequence (P54284 whole entry partner): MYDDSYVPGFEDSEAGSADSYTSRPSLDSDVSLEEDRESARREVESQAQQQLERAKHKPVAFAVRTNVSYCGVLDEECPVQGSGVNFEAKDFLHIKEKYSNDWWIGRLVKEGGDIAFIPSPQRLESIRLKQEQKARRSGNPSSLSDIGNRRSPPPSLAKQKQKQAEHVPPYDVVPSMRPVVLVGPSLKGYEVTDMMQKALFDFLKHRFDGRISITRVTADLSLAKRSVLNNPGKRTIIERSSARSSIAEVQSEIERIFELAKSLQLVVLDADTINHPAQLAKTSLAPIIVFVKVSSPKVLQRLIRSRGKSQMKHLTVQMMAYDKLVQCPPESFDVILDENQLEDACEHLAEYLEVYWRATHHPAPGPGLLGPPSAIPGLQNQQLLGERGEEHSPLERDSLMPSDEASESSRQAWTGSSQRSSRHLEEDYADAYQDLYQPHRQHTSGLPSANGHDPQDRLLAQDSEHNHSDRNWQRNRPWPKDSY
vascular L-type Ca^2+ channels, sequence (P54289 25-956 partner limits assumed): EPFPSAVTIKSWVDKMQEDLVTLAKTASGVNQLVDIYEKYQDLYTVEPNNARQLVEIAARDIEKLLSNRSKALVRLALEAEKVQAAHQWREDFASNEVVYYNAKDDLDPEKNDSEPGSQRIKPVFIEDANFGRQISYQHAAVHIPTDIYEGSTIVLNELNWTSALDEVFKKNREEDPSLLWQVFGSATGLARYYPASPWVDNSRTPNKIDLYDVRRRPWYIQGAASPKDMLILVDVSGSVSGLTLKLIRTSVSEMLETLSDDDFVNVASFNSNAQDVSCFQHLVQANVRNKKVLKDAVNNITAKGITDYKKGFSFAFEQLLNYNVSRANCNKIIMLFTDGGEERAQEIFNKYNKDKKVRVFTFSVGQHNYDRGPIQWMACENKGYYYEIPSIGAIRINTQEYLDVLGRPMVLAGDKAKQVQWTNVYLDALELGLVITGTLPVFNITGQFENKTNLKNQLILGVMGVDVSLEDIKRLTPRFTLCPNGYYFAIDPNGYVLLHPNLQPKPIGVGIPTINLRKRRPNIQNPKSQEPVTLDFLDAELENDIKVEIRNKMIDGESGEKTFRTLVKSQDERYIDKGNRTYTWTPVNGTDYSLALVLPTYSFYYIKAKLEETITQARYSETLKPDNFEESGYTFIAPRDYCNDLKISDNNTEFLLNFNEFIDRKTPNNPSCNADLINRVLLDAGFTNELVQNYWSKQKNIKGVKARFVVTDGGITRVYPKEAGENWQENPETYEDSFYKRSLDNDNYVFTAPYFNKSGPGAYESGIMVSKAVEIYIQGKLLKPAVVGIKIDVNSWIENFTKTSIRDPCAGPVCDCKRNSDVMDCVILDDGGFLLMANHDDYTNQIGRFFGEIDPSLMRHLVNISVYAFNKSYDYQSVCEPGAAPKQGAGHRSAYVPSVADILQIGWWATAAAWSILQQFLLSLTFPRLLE
vascular L-type Ca^2+ channels, sequence (P54289 957-1103 partner limits assumed): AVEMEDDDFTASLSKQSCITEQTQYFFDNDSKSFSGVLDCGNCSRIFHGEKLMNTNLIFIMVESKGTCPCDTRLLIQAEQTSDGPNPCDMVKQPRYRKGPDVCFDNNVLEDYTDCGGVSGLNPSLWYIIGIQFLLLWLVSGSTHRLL
Description: The activities were measured for two types of ion channels that are perhaps the most important in determining the contractile state of vascular smooth muscle cells: potassium (K^+) channels, which determine the resting membrane voltage, and voltage-sensitive calcium (Ca^2+) channels (VSCC), the activation of which allows Ca^2+ influx and vasoconstriction. […] The actions of these drugs can be assessed at the level of isolated arterial myocytes and intact pressurized arteries.

[4] = tested on: ovalbumin-sensitized guinea pigs; assay: Aerosolized ovalbumin challenge with inhaled retigabine in guinea pigs; conditions: thirty-minute exposure with ovalbumin, doses up to 1 mM
Description: To assess the feasibility of inhalational therapy with a Kv7 channel activator, an investigation was conducted to assess the ability of retigabine to exert a therapeutic anti-bronchospastic benefit in vivo. […] This model involves a series of three intraperitoneal injections of ovalbumin (OA) or saline (as control) over a one week period, followed by a two-week sensitization period, and finally challenge with aerosolized ovalbumin.
In the investigation, two saline-control and two ovalbumin-sensitized animals were exposed to aerosolized ovalbumin on three consecutive days, but in this case the ovalbumin treatment was administered with varying doses of retigabine on consecutive days.

Kv7 channels = assay: Perforated patch clamp of Kv7 currents in freshly isolated guinea pig ASMCs; type: cell-based
Description: Another investigation relating to this aspect of the invention was directed to investigating Kv7 currents in freshly dissociated guinea pig ASMCs. […] 197-218 (1992), ASMCs were isolated from guinea pig bronchioles by enzymatic digestion and whole cell perforated patch clamp electrophysiology was used to record Kv7 currents. Kv7 currents were recorded in isolation from other ionic currents by including 100 μM gadolinium chloride in the external solution and applying relatively long (about five second) voltage steps, during which many other classes of channels inactivate.

[5] = randomized clinical trials / clinical studies; cited from earlier work
Sprague-Dawley rats = assay: Mean arterial pressure and mesenteric vascular resistance in anesthetized instrumented rats; type: in vivo, rat
[6] = 100 mg dose; cited from earlier work
human PCLS = assay: Airway relaxation in human PCLS from an asthmatic lung; conditions: 30 pM alone, thirty-minute treatment (H1+F)
Description: FIG. 15A is a representative recording of airway area from a PCLS derived from an asthmatic human lung.

[7] = 10 nM, 230 nM MeCh (FIG. 14A,C)
[8] = 10 nM, 90 minute interval (FIG. 14A,C)
[9] = formoterol 10 nM alone (FIG. 14B,D)

Cc1ccc(C)c(-c2cc(C(F)(F)F)nn2-c2ccc(S(N)(=O)=O)cc2)c1 [2,5-dimethyl-celecoxib]
effect on vascular Kv7 channels (vascular Kv7 channels): potent activator
effect on KCNQ currents at −20 mV holding voltage (KCNQ channels; rat ASMCs, 10 μM): effective as an activator
reduction of MeCh-induced airway constriction ([1]; 10 μM, 230 nM MeCh): 23%
bronchorelaxant action when XE991 is included [1]: not significantly reduced
anti-cancer activity [2]: stronger anti-cancer activity than celecoxib itself
effect on vascular L-type Ca^2+ channels [3]: inhibitor

CCOC(=O)Nc1ccc(NCc2ccc(F)cc2)cc1N [retigabine]
reduction of MeCh-induced airway constriction ([1]; 10 μM, 230 nM MeCh): about 31%
relaxation when applied alone ([1]; 10 μM, 230 nM MeCh): 45.7±4.9%
EC50 ([1]; Rattus norvegicus, read-out: EC50 of relaxation of pre-constricted airways): 3.6 ± 0.3 µM
maximum relaxation ([1]; pre-constricted thirty minutes with 230 nM MeCh): 61±9%
effect on saline control animals [4]: no apparent effect

NCCc1c[nH]cn1 [histamine]
effect on ASMC Kv7 currents (Kv7 channels; 30 μM): significantly suppressed

CS(=O)(=O)c1ccc(C2=C(c3ccccc3)C(=O)OC2)cc1 [rofecoxib]
effect on vascular Kv7 channels (vascular Kv7 channels): does not exhibit either effect
risk of cardiovascular (CV) events [5]: significantly increased the risk of cardiovascular (CV) events
effect on vascular L-type Ca^2+ channels [3]: does not exhibit either effect

O=C1N(c2ccccc2)c2ccccc2C1(Cc1ccncc1)Cc1ccncc1 [linopirdine]
mean arterial pressure (MAP) (Sprague-Dawley rats): opposite effects
mesenteric vascular resistance (MVR) (Sprague-Dawley rats): opposite effects
effect on ASMC Kv7 currents (Kv7 channels; celecoxib 10 μM at −20 mV): complete suppression

CCOC(=O)Nc1ccc(NCc2ccc(F)cc2)nc1N [flupirtine]
increase of vascular Kv7 current (vascular Kv7 channels; 10 μM): 100%
plasma concentration achieved clinically [6]: about 12 μM

CC(C)NCC(O)c1ccc(O)c(O)c1 (stereo not shown) [isoproterenol]
effect on KCNQ currents at −20 mV holding voltage (KCNQ channels; rat ASMCs, 100 nM): ineffective in enhancement of KCNQ currents

COc1ccc(C[C@@H](C)NC[C@H](O)c2ccc(O)c(NC=O)c2)cc1.COc1ccc(C[C@@H](C)NC[C@H](O)c2ccc(O)c(NC=O)c2)cc1.O=C(O)/C=C/C(=O)O [formoterol, formoterol fumarate]
effect on KCNQ currents at −20 mV holding voltage (KCNQ channels; rat ASMCs, 10 nM): did not enhance KCNQ currents
final relaxation after thirty minutes, first application [1, 7]: 46±14%
peak relaxation, first application [1, 7]: 68±10%
final relaxation, second application [1, 8]: 32±6%
peak relaxation, second application [1, 8]: 48±8%
maximum relaxation of airways constricted with MeCh ([1]; at 1 μM, 230 nM MeCh): 72±5%
time course of relaxation response ([1]; concentrations greater than or equal to 10 nM): noticeable time-dependent decline in the relaxation response
final relaxation, acute exposure of the same slices [1, 9]: 34±6%
peak relaxation, acute exposure of the same slices [1, 9]: 59±4%
relaxation of histamine-constricted asthmatic human airway (human PCLS): 18%

O=C1c2ccccc2C(Cc2ccncc2)(Cc2ccncc2)c2ccccc21 [XE991]
effect on ASMC Kv7 currents (Kv7 channels; celecoxib 10 μM at −20 mV): complete suppression
effect on KCNQ currents in the presence of retigabine (KCNQ channels; 1 μM, subsequent application after retigabine (with MeCh or formoterol)): completely abolished; also recorded: effectively abolished
effect on KCNQ currents at −20 mV holding voltage (KCNQ channels; rat ASMCs, 10 μM): inhibited

CC(=O)OC(C)C[N+](C)(C)C (stereo not shown) [methacholine]
effect on ASMC Kv7 currents (Kv7 channels; 100 nM, −20 mV): completely suppressed
reduction of KCNQ currents at −20 mV (KCNQ channels; rat ASMCs, 230 nM, n=7): 55.1±6.2%
EC50 ([1]; rat PCLS, 100 nM to 1 μM, Hill fit, n=5, read-out: EC50 of airway constriction): 0.248 ± 0.049 µM
Hill coefficient of airway constriction ([1]; rat PCLS, n=5): 1.6±0.2
maximal constriction ([1]; rat PCLS, n=5): 81±7%

zinc pyrithione
effect on KCNQ currents at −20 mV holding voltage (KCNQ channels; rat ASMCs, 100 nM): enhanced
threshold of KCNQ channel activation (KCNQ channels; voltage step protocol, retigabine 10 μM, ZnPyr 100 nM): shifted the threshold of channel activation to more negative voltages
reduction of MeCh-induced airway constriction ([1]; 1 μM, 230 nM MeCh, relative to vehicle): 21%
bronchorelaxant action when XE991 is included [1]: suppressed or prevented

Cc1ccc(-c2cc(C(F)(F)F)nn2-c2ccc(S(N)(=O)=O)cc2)cc1 [celecoxib]
risk of cardiovascular (CV) events [5]: failed to demonstrate an increased CV risk

O=C(O)Cc1ccccc1Nc1c(Cl)cccc1Cl [diclofenac]
effect on vascular Kv7 channels (vascular Kv7 channels): pronounced effects
risk of cardiovascular (CV) events [5]: significantly increased the risk of cardiovascular (CV) events
